Laboratory results from patent US7176313B2, “Anti acid-fast bacterial agent containing pyridonecarboxylic acids as active ingredient” (Daiichi Pharmaceutical Co., Ltd., priority 2000, dated 2007).
Converted amounts (≈) assume the structure as drawn. Like-named read-outs stand apart in the source and are kept apart here.

Key:
M. intracellulare = test: Antibacterial activity (MIC) against M. intracellulare; type: cell-based, Mycobacterium intracellulare
Description: Antibacterial activity of the compounds of the invention was measured in accordance with the method described in the literature of Antimicrob. Agents and Chemother., 38, 2877 (1994), and the results are shown in Tables 3 to 8 in terms of MIC (μg/ml). In the tables, “OFLX” is an abbreviation of “OFLOXAIN”.

M. avium = test: Antibacterial activity (MIC) against M. avium; type: cell-based, Mycobacterium avium
Description: Antibacterial activity of the compounds of the invention was measured in accordance with the method described in the literature of Antimicrob. […] In the tables, “OFLX” is an abbreviation of “OFLOXAIN”.

[1] = test system: Mycobacterium tuberculosis (RFP sensitive); test: Antibacterial activity (MIC) against Mycobacterium tuberculosis (RFP sensitive); type: cell-based
reticulocytes (RC) = test: Peripheral blood micronucleus test; type: in vivo, Male Slc:ddY mice; conditions: mice, intravenous
Description: Peripheral Blood Micronucleus Test
Used animals and administration method are similar to those in the mouse acute toxicity test. Samples were prepared by collecting 5 μl each of blood sample from the tail vein at 24 and 48 hours after the administration, dropping the blood on a slide at which 0.1% acridine orange solution had been applied in advance, sealing the slide with a cover glass immediately, and allowing it to stand in a refrigerator for 24 hours.

[2] = Mouse acute toxicity test; type: in vivo, Male Slc:ddY mice; conditions: intravenous
Description: Mouse Acute Toxicity Test
Male Slc:ddY mice at age of 5-weeks were used as test animals. For dissolving the compounds, 0.1 mol/l NaOH (in saline) was used. Mice were administered intravenously at a rate of 0.1 ml/30 seconds at a dosing volume of 10 ml/kg.

[3] = M. intracellulare N-294, Table 3
[4] = M. intracellulare N-313, Table 3
[5] = M. intracellulare N-338, Table 3
[6] = M. intracellulare N-345, Table 3
[7] = M. tuberculosis Kurono, Table 5
[8] = M. tuberculosis No. 40, Table 5
[9] = M. tuberculosis No. 41, Table 5
[10] = M. tuberculosis No. 43, Table 5
[11] = M. tuberculosis No. 68, Table 5

Compound COc1c(N2CC3CCCNC3C2)c(F)cc2c(=O)c(C(=O)O)cn(C3CC3)c12 (stereo not shown) [Compd. 5] has an MIC (M. intracellulare; [3]) of 1.56 µg/mL (≈ 3.89 µM), an MIC (M. intracellulare; [4]) of 0.78 µg/mL (≈ 1.94 µM) and an MIC (M. intracellulare; [5]) of 1.56 µg/mL (≈ 3.89 µM). It also gave an MIC (M. intracellulare; [6]) of 3.13 µg/mL (≈ 7.8 µM), an MIC (M. avium; M. avium N-357, Table 3) of 0.39 µg/mL (≈ 0.972 µM) and an MIC (M. avium; M. avium N-444, Table 3) of 1.56 µg/mL (≈ 3.89 µM). For the same compound, the MIC (M. avium; M. avium N-458, Table 3) was 0.78 µg/mL (≈ 1.94 µM), the MIC ([1]; M. tuberculosis H37Rv, Table 5) was 0.10 µg/mL (≈ 0.249 µM) and the MIC [1, 7] was 0.05 µg/mL (≈ 0.125 µM). For the same compound, the MIC [1, 8] was 0.10 µg/mL (≈ 0.249 µM), the MIC [1, 9] was 0.025 µg/mL (≈ 0.0623 µM) and the MIC [1, 10] was 0.78 µg/mL (≈ 1.94 µM). The MIC [1, 11] was 0.10 µg/mL (≈ 0.249 µM).
CCC1CN(c2c(F)cc3c(=O)c(C(=O)O)cn(C4CC4F)c3c2OC)CCN1 (stereo not shown) [Compd. 18] showed an MIC (M. intracellulare; M. intracellulare N-294, Table 4 (series 2)) of 2.0 µg/mL (≈ 4.91 µM), an MIC (M. intracellulare; M. intracellulare N-313, Table 4 (series 2)) of 0.25 µg/mL (≈ 0.614 µM) and an MIC (M. intracellulare; M. intracellulare N-338, Table 4 (series 2)) of 0.50 µg/mL (≈ 1.23 µM). It also gave an MIC (M. intracellulare; M. intracellulare N-345, Table 4 (series 2)) of 0.50 µg/mL (≈ 1.23 µM), an MIC (M. avium; M. avium N-357, Table 4 (series 2)) of 0.50 µg/mL (≈ 1.23 µM) and an MIC (M. avium; M. avium N-444, Table 4 (series 2)) of 2.0 µg/mL (≈ 4.91 µM). For the same compound, the MIC (M. avium; M. avium N-458, Table 4 (series 2)) was 1.0 µg/mL (≈ 2.45 µM), the MIC (M. avium; M. avium N-472, Table 4 (series 2)) was 8.0 µg/mL (≈ 19.6 µM) and the MIC ([1]; M. tuberculosis H37Rv, Table 6 (series 2)) was 0.12 µg/mL (≈ 0.295 µM). For the same compound, the MIC ([1]; M. tuberculosis Kurono, Table 6 (series 2)) was 0.12 µg/mL (≈ 0.295 µM), the MIC ([1]; M. tuberculosis No. 40, Table 6 (series 2)) was 0.12 µg/mL (≈ 0.295 µM) and the MIC ([1]; M. tuberculosis No. 41, Table 6 (series 2)) was 0.06 µg/mL (≈ 0.147 µM). The MIC ([1]; M. tuberculosis No. 43, Table 6 (series 2)) was 1.0 µg/mL (≈ 2.45 µM) and the MIC ([1]; M. tuberculosis No. 68, Table 6 (series 2)) was 0.25 µg/mL (≈ 0.614 µM).
In the case of C[C@H]1COc2c(N3CC4CCCNC4C3)c(F)cc3c(=O)c(C(=O)O)cn1c23 (stereo partly shown) [Compd. 13], the MIC (M. intracellulare; [3]) is reported as 1.56 µg/mL (≈ 4.03 µM), the MIC (M. intracellulare; [4]) is reported as 0.39 µg/mL (≈ 1.01 µM) and the MIC (M. intracellulare; [5]) is reported as 1.56 µg/mL (≈ 4.03 µM). It also gave an MIC (M. intracellulare; [6]) of 3.13 µg/mL (≈ 8.08 µM), an MIC (M. avium; M. avium N-357, Table 3) of 0.39 µg/mL (≈ 1.01 µM) and an MIC (M. avium; M. avium N-444, Table 3) of 0.78 µg/mL (≈ 2.01 µM). The MIC (M. avium; M. avium N-458, Table 3) was 0.20 µg/mL (≈ 0.516 µM), the MIC (M. avium; M. avium N-472, Table 3) was 1.56 µg/mL (≈ 4.03 µM) and the MIC ([1]; M. tuberculosis H37Rv, Table 5) was 0.05 µg/mL (≈ 0.129 µM). The MIC [1, 7] was 0.05 µg/mL (≈ 0.129 µM), the MIC [1, 8] was 0.05 µg/mL (≈ 0.129 µM) and the MIC [1, 11] was 0.10 µg/mL (≈ 0.258 µM).
For COc1c(N2CCN(C)CC2)c(F)cc2c(=O)c(C(=O)O)cn([C@@H]3C[C@@H]3F)c12 [Compd. 15, 6-Fluoro-1-[2-(S)-fluoro-1-(R)-cyclopropyl]-1,4-dihydro-8-methoxy-7-(4-methylpiperazin-1-yl)-4-oxoquinoline-3-carboxylic acid], the MIC (M. intracellulare; [5]) was 1.56 µg/mL (≈ 3.97 µM), the MIC (M. intracellulare; Mycobacterium intracellulare, M. intracellulare N-313, Table 3, read-out: MIC) was 0.39 µg/mL (≈ 0.991 µM) and the MIC (M. intracellulare; Mycobacterium intracellulare, M. intracellulare N-345, Table 3, read-out: MIC) was 3.13 µg/mL (≈ 7.96 µM). For the same compound, the MIC (M. intracellulare; Mycobacterium intracellulare, M. intracellulare N-294, Table 3, read-out: MIC) was 1.56 µg/mL (≈ 3.97 µM), the MIC (M. avium; Mycobacterium avium, M. avium N-357, Table 3, read-out: MIC) was 0.39 µg/mL (≈ 0.991 µM) and the MIC (M. avium; Mycobacterium avium, M. avium N-444, Table 3, read-out: MIC) was 0.78 µg/mL (≈ 1.98 µM). For the same compound, the MIC (M. avium; Mycobacterium avium, M. avium N-458, Table 3, read-out: MIC) was 0.2 µg/mL (≈ 0.508 µM), the MIC (M. avium; Mycobacterium avium, M. avium N-472, Table 3, read-out: MIC) was 1.56 µg/mL (≈ 3.97 µM) and the MIC ([1]; Mycobacterium tuberculosis, H37RV, M. tuberculosis H37Rv, Table 5, read-out: MIC) was 0.1 µg/mL (≈ 0.254 µM). For the same compound, the MIC ([1]; Mycobacterium tuberculosis, M. tuberculosis Kurono, Table 5, read-out: MIC) was 0.05 µg/mL (≈ 0.127 µM), the MIC ([1]; Mycobacterium tuberculosis, M. tuberculosis No. 40, Table 5, read-out: MIC) was 0.05 µg/mL (≈ 0.127 µM) and the MIC ([1]; Mycobacterium tuberculosis, M. tuberculosis No. 41, Table 5, read-out: MIC) was 0.025 µg/mL (≈ 0.0636 µM). For the same compound, the MIC ([1]; Mycobacterium tuberculosis, M. tuberculosis No. 43, Table 5, read-out: MIC) was 0.39 µg/mL (≈ 0.991 µM), the MIC ([1]; Mycobacterium tuberculosis, M. tuberculosis No. 68, Table 5, read-out: MIC) was 0.1 µg/mL (≈ 0.254 µM) and the “MNRC (%) mean ±S.E. 24 hours” value (reticulocytes (RC); 50 mg/kg, 24 hours after administration) was 0.20 ± 0.04%. The “MNRC (%) mean ±S.E. 48 hours” value (reticulocytes (RC); 50 mg/kg, 48 hours after administration) was 0.14 ± 0.04%, the micronucleus induction (reticulocytes (RC); (untreated control: 0.12±0.08)) was “weak” and the “survival of mice after administration” value ([2]; text summary of Table 9) was “all mice were survived”. For the same compound, the “Mortality (dead/ test)” value ([2]; mice, 50 mg/kg) was 0/5 and the acute toxicity ([2]; mice, text summary of Table 9) was “relatively weak”.
In the case of NC1CN(c2c(F)cc3c(=O)c(C(=O)O)cn([C@@H]4C[C@@H]4F)c3c2Cl)CC12CC2 (stereo partly shown) [Compd. 4], the MIC (M. intracellulare; [3]) is reported as 1.56 µg/mL (≈ 3.81 µM), the MIC (M. intracellulare; [4]) is reported as 0.39 µg/mL (≈ 0.952 µM) and the MIC (M. intracellulare; [5]) is reported as 1.56 µg/mL (≈ 3.81 µM). The MIC (M. intracellulare; [6]) was 3.13 µg/mL (≈ 7.64 µM), the MIC (M. avium; M. avium N-357, Table 3) was 0.20 µg/mL (≈ 0.488 µM) and the MIC (M. avium; M. avium N-444, Table 3) was 0.78 µg/mL (≈ 1.9 µM). It also gave an MIC (M. avium; M. avium N-458, Table 3) of 0.39 µg/mL (≈ 0.952 µM), an MIC (M. avium; M. avium N-472, Table 3) of 1.56 µg/mL (≈ 3.81 µM) and an MIC ([1]; M. tuberculosis H37Rv, Table 5) of 0.025 µg/mL (≈ 0.061 µM). For the same compound, the MIC [1, 7] was 0.013 µg/mL (≈ 0.0317 µM), the MIC [1, 8] was 0.025 µg/mL (≈ 0.061 µM) and the MIC [1, 9] was under 0.003 µg/mL. The MIC [1, 10] was 0.20 µg/mL (≈ 0.488 µM) and the MIC [1, 11] was 0.025 µg/mL (≈ 0.061 µM).
